Results: US20260223593A1, “Organic Compound, Light-Emitting Device, Display Apparatus, And Electronic Appliance” (Semiconductor Energy Laboratory Co., Ltd., priority 2023, published 2026)
≈ marks a conversion by molar mass, not a printed value.

Assay: Solubility test of Ph3TP-hpp by LC/MS analysis (water solubility)
Format: physicochemical
Procedure: In the LC/MS analysis, LC (liquid chromatography) separation was carried out with Acquity UPLC (registered trademark) produced by Waters Corporation, and MS analysis (mass spectrometry) was carried out with Xevo G2 Tof MS produced by Waters Corporation. Acquity UPLC BEH C8 (2.1×100 mm, 1.7 μm) was used as a column for the LC separation. Acetonitrile was used for Mobile Phase A and a 0.1% aqueous solution of formic acid was used for Mobile Phase B. The injection amount of the sample was 5.0 μL. Note that in the analysis, the wavelength of a photodiode array detector was set to 246 nm±1 nm.
In a 5-mL sample bottle, 1 mg of Ph3TP-hpp was put and 2 mL of toluene was added thereto, and then this mixture was irradiated with ultrasonic waves for five minutes. After it was confirmed that the solid was completely dissolved, this solution was diluted by 2.5 times with acetonitrile, whereby the concentration of the solution was adjusted to 200 mg/L. This solution was diluted with acetonitrile, whereby solutions with concentrations of 20 mg/L, 10 mg/L, and 4 mg/L were prepared. The prepared solutions were subjected to LC/MS analysis, and the peak area values derived from Ph3TP-hpp, which were obtained at the respective solution concentrations, were used to form calibration curves.
Next, the water solubility of Ph3TP-hpp was measured.
In a 5-mL sample bottle, 1 mg of Ph3TP-hpp was put and 1 mL of water was added thereto, and then this mixture was irradiated with ultrasonic waves for five minutes. This mixture was filtered through a membrane filter to remove the solid, and the obtained filtrate was diluted by five times with acetonitrile. The obtained solution was subjected to LC/MS analysis.

c1ccc(-c2cc(-c3cccc(N4CCCN5CCCN=C54)c3)c(-c3ccccc3)c(-c3ccccc3)c2-c2ccccc2)cc1 [Ph3TP-hpp, 1-(3′,4′,5′-triphenyl-1,1′:2′,1″-terphenyl-3-yl)-1,3,4,6,7,8-hexahydro-2H-pyrimide[1,2-a]pyrimidine]
solubility of Ph3TP-hpp dissolved in 1 mL of water (1 mg in 1 mL of water, ultrasonic waves five minutes, membrane filtered, filtrate by LC/MS against calibration curve): 0.031 mg | solubility at 5 min (thermodynamic from solid, water, from 0.031 mg in 1 mL, read-out: weight fraction of the water solubility): 31 µg/mL (≈ 52 µM) | water solubility (in words) (water, LC/MS solubility test): low water solubility
